Assay results from patent US12522582B2 (Gilead Sciences, Inc., priority 2022, dated 2026).

What was measured:
[1] = system: human cryopreserved hepatocytes; assay: Stability Assay in Cryopreserved Hepatocytes (human); format: in vitro ADME; conditions: 1 μM, calculated from half-life using the well-stirred model
Method: Test compound was incubated at 1 μM with either rat or human cryopreserved hepatocytes (BioIVT, Westbury, NY) up to 6 hours at 37° C. in a 24-well plate format (1×10^6 cells/mL per well). At specified time points, samples were transferred to a 96-well plate and quenched with 2 volumes of a solution containing 90% acetonitrile 10% methanol 0.1% formic acid and internal standard. Sample plate was centrifuged at 3200 rpm for 15 min and supernatants transferred to a new plate containing half volume of water. The resulting solution was analyzed by LC-MS/MS. Data (analyte to internal standard peak area ratio) was plotted on a semi-log scale and fitted using an exponential fit. Assuming first order kinetics, the half-life (t1/2) and rate of metabolism were determined. Predicted hepatic clearance was calculated from the half-life using the well-stirred model.

[2] = system: HSV-2 virus (MS strain); assay: HSV-2 Cellomics Assay (immunofluorescence of HSV protein gD in infected ARPE-19 cells)
[3] = system: HSV-2 virus (MS strain); assay: HSV qPCR Assay (HSV replication in ARPE-19 cells)
[4] = MT-4 CC50 Assay (CellTiter Glo); format: cell-based; conditions: human, MT-4 cells, luminescence, read-out: CC50-MT4
Method: Compounds were tested in 384-well plates: 18 compounds in duplex. Compounds were diluted in 7 points, 3-fold with DMSO by Bravo. Assay plate, which contains 20 uL medium with compounds, was seeded 2000 MT-4 cells in 20 uL/well by Multi-drop to start the assay. The plate was incubated at 37° C. for 5 days. On 6th day, the CellTiter Glo 40 uL was added in each well. Luminescence was read by Victor II.

[5] = Human alphaherpesvirus 2, ARPE-19, 16 h, read-out: EC50-HSV2-FBS
[6] = Human alphaherpesvirus 2, ARPE-19, read-out: EC50-HSV2-qPCR
[7] = Human alphaherpesvirus 2, ARPE-19, 16 h, read-out: EC50-HSV2-10% Human Serum
[8] = Human alphaherpesvirus 2, ARPE-19, read-out: EC50 in HSV qPCR assay

Structure (SMILES) | Predicted human hepatic clearance [1] | EC50 [2, 5] | EC50 [3, 6] | EC50 [2, 7] | CC50 at 5 days [4] | EC50 [3, 8] | EC50 ([2]; Human alphaherpesvirus 2, ARPE-19, read-out: EC50 in HSV-2 Cellomics assay)
C[C@H]1Cc2ccc(S(N)(=O)=O)cc2N1C(=O)[C@@H]1Cc2ccc(-c3ccccn3)cc2C1 (single isomer, unassigned) [Example 16] | 0.12 L/h/kg | 775 nM | – | – | – | – | –
CC1Cc2ccc(S(N)(=O)=O)cc2N1C(=O)C1Cc2ccc(-c3ccccn3)cc2C1 (stereo not drawn) [Example 3] | – | 129 nM | 18.5 nM | ≥ 25000 nM | – | – | –
C[C@H]1Cc2cc(F)c(S(N)(=O)=O)cc2N1C(=O)[C@@H]1Cc2ccc(-c3ccccn3)cc2C1 [Example 34] | 0.20 L/h/kg | 158 nM | – | 1570 nM | – | – | –
C[C@@H]1Cc2cc(F)c(S(N)(=O)=O)cc2N1C(=O)[C@@H]1Cc2ccc(-c3cc(F)ccc3Cl)cc2C1 [Example 50, (R)-1-((R)-5-(2-chloro-5-fluorophenyl)-2,3-dihydro-1H-indene-2-carbonyl)-5-fluoro-2-methylindoline-6-sulfonamide] | – | 61 nM | – | 214 nM | ≥ 10 µM | – | –
C[S@](=N)(=O)c1cc2c(cc1F)CCN2C(=O)[C@@H]1Cc2ccc(-c3cc(F)ccc3F)cc2C1 [Example 53] | – | 48 nM | – | 415 nM | ≥ 10 µM | – | –
C[C@@H]1Cc2ccc(S(N)(=O)=O)cc2N1C(=O)C1Cc2cc(-c3ccccn3)ccc2O1 (stereo partly drawn) [Example 57] | – | 35 nM | – | 381 nM | ≥ 10 µM | – | –
C[C@@H]1Cc2cc(F)c(S(N)(=O)=O)cc2N1C(=O)[C@@H]1Cc2ccc(-c3cc(F)cc(F)c3F)cc2C1 [Example 62, (R)-5-fluoro-2-methyl-1-((R)-5-(2,3,5-trifluorophenyl)-2,3-dihydro-1H-indene-2-carbonyl)indoline-6-sulfonamide] | – | 59 nM | – | 318 nM | ≥ 10 µM | – | –
Cc1cc2c(cc1S(N)(=O)=O)N(C(=O)[C@@H]1Cc3ccc(-c4ccccn4)cc3C1)[C@H](C)C2 [Example 63, (R)-2,5-dimethyl-1-((R)-5-(pyridin-2-yl)-2,3-dihydro-1H-indene-2-carbonyl)indoline-6-sulfonamide] | – | 25 nM | – | 912 nM | ≥ 10 µM | – | –
NS(=O)(=O)c1ccc2c(c1)N(C(=O)[C@@H]1Cc3ccc(-c4ccccn4)cc3C1)CC21CC1 [Example 64, (R)-1′-(5-(pyridin-2-yl)-2,3-dihydro-1H-indene-2-carbonyl)spiro[cyclopropane-1,3′-indoline]-6′-sulfonamide] | – | 115 nM | – | ≥ 10000 nM | ≥ 10 µM | – | –
CC[C@@H]1Cc2ccc(S(N)(=O)=O)cc2N1C(=O)[C@@H]1Cc2ccc(-c3ccccn3)cc2C1 [Example 68, (R)-2-ethyl-1-((R)-5-(pyridin-2-yl)-2,3-dihydro-1H-indene-2-carbonyl)indoline-6-sulfonamide] | – | 31 nM | – | 233 nM | ≥ 10 µM | – | –
NS(=O)(=O)c1ccc2c(c1)N(C(=O)C1Cc3ccc(-c4ccccc4F)cc3C1)CC2 (stereo not drawn) [Example 70, 1-(5-(2-fluorophenyl)-2,3-dihydro-1H-indene-2-carbonyl) indoline-6-sulfonamide] | – | 91 nM | 25.8 nM | ≥ 25000 nM | – | – | –
NS(=O)(=O)c1ccc2c(c1)N(C(=O)C1Cc3ccc(-n4cccn4)cc3C1)CC2 (stereo not drawn) [Example 78, 1-(5-(1H-pyrazol-1-yl)-2,3-dihydro-1H-indene-2-carbonyl)indoline-6-sulfonamide] | – | 65 nM | – | 20700 nM | ≥ 50 µM | – | –
NS(=O)(=O)c1ccc2c(c1)N(C(=O)[C@@H]1Cc3ccc(-c4cccc(F)n4)cc3C1)CC2 [Example 85, (R)-1-(5-(6-fluoropyridin-2-yl)-2,3-dihydro-1H-indene-2-carbonyl)indoline-6-sulfonamide] | – | 8.9 nM | – | 7500 nM | 0.33 µM | – | –
NS(=O)(=O)c1ccc2c(c1)N(C(=O)[C@H]1Cc3ccc(-c4cnccn4)cc3C1)CC2 [Example 86, (S)-1-(5-(pyrazin-2-yl)-2,3-dihydro-1H-indene-2-carbonyl)indoline-6-sulfonamide] | – | 455 nM | – | – | 28.5 µM | – | –
NS(=O)(=O)c1ccc2c(c1)N(C(=O)[C@H]1Cc3ccc(-c4ncccc4F)cc3C1)CC2 [Example 88, (S)-1-(5-(3-fluoropyridin-2-yl)-2,3-dihydro-1H-indene-2-carbonyl)indoline-6-sulfonamide] | – | 535 nM | – | – | 1.8 µM | – | –
Cc1cccc(-c2ccc3c(c2)C[C@H](C(=O)N2CCc4ccc(S(N)(=O)=O)cc42)C3)n1 [Example 90, (R)-1-(5-(6-methylpyridin-2-yl)-2,3-dihydro-1H-indene-2-carbonyl)indoline-6-sulfonamide] | – | 23 nM | – | 14600 nM | 36.9 µM | – | –

Structure (SMILES) | Predicted human hepatic clearance [1] | EC50 [2, 5] | EC50 [3, 6] | EC50 [2, 7] | CC50 at 5 days [4] | EC50 [3, 8] | EC50 ([2]; Human alphaherpesvirus 2, ARPE-19, read-out: EC50 in HSV-2 Cellomics assay)
NS(=O)(=O)c1ccc2c(c1)N(C(=O)[C@@H]1Cc3ccc(-n4cccn4)cc3C1)CC2 [Example 91, (R)-1-(5-(1H-pyrazol-1-yl)-2,3-dihydro-1H-indene-2-carbonyl)indoline-6-sulfonamide] | – | 40 nM | – | 11600 nM | ≥ 50 µM | – | –
CC1c2ccc(-c3ccccn3)cc2CC1C(=O)N1CCc2cc(F)c(S(N)(=O)=O)cc21 (stereo not drawn) [Example 96, 5-fluoro-1-(1-methyl-5-(pyridin-2-yl)-2,3-dihydro-1H-indene-2-carbonyl) indoline-6-sulfonamide] | – | 24 nM | – | 85 nM | 12.9 µM | – | –
Cc1cccc(-c2ccc3c(c2)CC(C(=O)N2CCc4cc(F)c(S(N)(=O)=O)cc42)C3C)n1 (stereo not drawn) [Example 99, 5-fluoro-1-(1-methyl-5-(6-methylpyridin-2-yl)-2,3-dihydro-1H-indene-2-carbonyl) indoline-6-sulfonamide] | – | 63 nM | – | 396 nM | ≥ 10 µM | – | –
CC1c2ccc(-n3cccn3)cc2CC1C(=O)N1CCc2cc(F)c(S(N)(=O)=O)cc21 (stereo not drawn) [Example 100] | – | 34 nM | – | 107 nM | 5.43 µM | – | –
C[C@H]1CN(C(=O)[C@H]2Cc3cc(-c4ccccn4)ccc3[C@@H]2C)c2cc(S(N)(=O)=O)c(F)cc21 [Example 104, (R)-5-fluoro-3-methyl-1-((1R,2S)-1-methyl-5-(pyridin-2-yl)-2,3-dihydro-1H-indene-2-carbonyl)indoline-6-sulfonamide] | – | 20 nM | – | 64.4 nM | ≥ 10 µM | – | –
CC1CN(C(=O)C2Cc3ccc(-c4ccccn4)cc3C2)c2cc(S(N)(=O)=O)ccc21 (stereo not drawn) [Example 106, 3-Methyl-1-[5-(2-pyridyl)indane-2-carbonyl]indoline-6-sulfonamide] | – | 81 nM | 10.9 nM | – | – | – | –
CC[C@@H]1Cc2cc(F)c(S(N)(=O)=O)cc2N1C(=O)[C@@H]1Cc2ccc(-c3ccccn3)cc2C1 [Example 113] | – | 19 nM | – | 168 nM | ≥ 10 µM | – | –
NS(=O)(=O)c1cc2c(cc1F)CCN2C(=O)C1Cc2ccc(-c3ccccn3)cc2O1 (stereo not drawn) [Example 116, 5-fluoro-1-(6-(pyridin-2-yl)-2,3-dihydrobenzofuran-2-carbonyl)indoline-6-sulfonamide] | 0.05 L/h/kg | 42 nM | – | 489 nM | – | – | –
C[C@@H]1Cc2ccc(S(N)(=O)=O)cc2N1C(=O)[C@H]1Cc2cc(-c3cc(F)ccc3F)ccc2O1 [Example 123, (R)-1-((R)-5-(2,5-difluorophenyl)-2,3-dihydrobenzofuran-2-carbonyl)-2-methylindoline-6-sulfonamide] | – | 46 nM | – | 291 nM | ≥ 10 µM | – | –
NS(=O)(=O)c1ccc2c(c1)N(C(=O)[C@@H]1Cc3ccc(-c4ccncn4)cc3C1)CC2 [Example 129, (R)-1-(5-(pyrimidin-4-yl)-2,3-dihydro-1H-indene-2-carbonyl)indoline-6-sulfonamide] | 1.05 L/h/kg | 231 nM | – | 7610 nM | – | – | –
NS(=O)(=O)c1ccc2c(c1)N(C(=O)[C@@H]1Cc3ccc(-c4cccnc4)cc3C1)CC2 [Example 130, (R)-1-(5-(pyridin-3-yl)-2,3-dihydro-1H-indene-2-carbonyl)indoline-6-sulfonamide] | 0.45 L/h/kg | 110 nM | – | ≥ 10000 nM | – | – | –
NS(=O)(=O)c1ccc2c(c1)N(C(=O)[C@@H]1Cc3ccc(-c4ccncc4)cc3C1)CC2 [Example 131, (R)-1-(5-(pyridin-4-yl)-2,3-dihydro-1H-indene-2-carbonyl)indoline-6-sulfonamide] | 0.57 L/h/kg | 753 nM | – | ≥ 10000 nM | – | – | –
Nc1nc2c(ncn2COCCO)c(=O)[nH]1 [acyclovir, reference compound] | – | – | – | – | – | 1250 nM | –
Cc1cccc(C)c1N(CC(=O)Nc1ccc(-c2ncon2)cc1)C(=O)C1CCS(=O)(=O)CC1 [amenamevir, reference compound] | – | – | – | – | – | 14 nM | –
Cc1nc(N(C)C(=O)Cc2ccc(-c3ccccn3)cc2)sc1S(N)(=O)=O [pritelivir, reference compound] | – | – | – | – | – | 14 nM | 150 nM
